Reference: US7022720B2, “Synthetic diazonamides as novel anti-mitotic agents” (Board of Regents, The University of Texas System, priority 2001, dated 2006)
Like-named read-outs stand apart in the source and are kept apart here.

Columns and labels:
HCT-116 cells [1] = type: cell-based, human; conditions: 30 nM, 12-48 hours, FIG. 14
Protocol: FACS Analysis was performed on HCT-116 cells to examine the effect of JL-9 on mitosis. 150,000 HCT-116 cells were incubated per well with media into six well tissue culture plates. Cells were allowed to adhere for 16–18 hours. Media containing 0.01% ethanol (vehicle control), 30 nanomolar (nM) taxol, 30 nM vinblastine and 30 nM JL-9 was added to cells and incubated for 12, 24, 36, or 48 hours. At these time points, cells were harvested with 0.25% trypsin 1 mM EDTA, and transferred to 1.5 ml Eppendorf tubes. Cells were pelleted and washed twice with 1×PBS. Cells were then fixed in −20° C. 100% ethanol and stored at 4° C. Cells were pelleted from 100% ethanol, washed once with 1×PBS, and treated with Vindelov's propidium iodide solution (50 ug/ml propidium iodide, 0.01 mM NaCl, 0.1% IPEGAL, 0.01 mg RNase) and 1 mg/ml RNAse for 30 minutes at 37° C. Propidium iodide is a fluorescent marker that binds to nucleotides. It can be used with FACS scan analysis to determine the ploidy of a population of cells. FACS scan analysis was performed using […] FACScan instrument. Data was analyzed using Cell Quest software.

[2] = Comparison of synthesized compound with natural diazonamide (handling stability); type: physicochemical
Excerpt: Characteristics of synthesized diazonamide compound, JL-9, were compared to naturally occurring diazonamide. […] The process completes upon attempted preparative HPLC purification of 1b (FIG. 1) under conditions identical to those used to isolate natural (−)-diazonamide A. In addition, a second degradation pathway available in this series appears as a result of the cleavage of the strained macrolactam ring through diketopiperazine formation that involves the C37 amine and the C12 amide carbonyl.

SK-MEL-5 cells = assay: MTT assay in SK-MEL-5; type: cell-based, human; conditions: SK-MEL-5, MTT, FIG. 13
Excerpt: This assay measures cellular viability and proliferation based on the ability of live cells to take up and cleave a tetrazolium salt to generate a colored product.

OVCAR-3 cells [3] = assay: Indirect immunofluorescence of tubulin cytoskeleton in OVCAR-3; type: cell-based, human; conditions: OVCAR-3, 12 or 23 hours, FIGS. 15D and 15E
Protocol: Immunofluorescence was performed on JL-9, taxol, vinblastine, control-treated OVCAR-3 cells to examine their effects on tubulin cytoskeleton. Cells were grown on 2 cm glass cover slips in tissue culture wells. Media containing JL-9, vinblastine, or taxol was added at various concentrations and incubated for 12 or 23 hours. Hoescht […] nuclear dye was added directly to the media (1.5 ug/ml) and incubated at 37° C. for 30 minutes. Coverslips were washed 3× with 1×PBS and fixed for 10 minutes with −20C 100% methanol. Coverslips were washed 3× with 1×PBS/1% BSA and treated directly with a 1/2000 dilution of anti-α-tubulin antibody (mouse anti-human). Coverslips were washed 3× with 1×PBS/1% BSA and treated with 1/500 dilution of fluorescently conjugated goat anti-mouse secondary antibody (Alexa Fluor 488). Coverslips were washed 3× with 1×PBS/1% BSA and mounted on microscope slides using mounting media (Aqua Poly Mount). Images were obtained using Zeiss Axiovert 100M digital light and confocal microscopy.

BSC-1 cells = assay: Immunofluorescence of alpha tubulin in BSC-1 cells after thymidine block; type: cell-based, African Green Monkey; conditions: BSC-1, 100 nM, 12 hours after thymidine block, FIG. 16
Protocol: Immunofluorescence was also performed on JL-9, JL-10, taxol and vinblastine-treated BSC-1 cells subjected to thymidine block. BCS-1 African Green Monkey kidney cells were treated for 18 hours in culture medium containing 2 mM thymidine and then returned to normal medium containing 100 nM of taxol, vinblastine, JL-10 (control) or JL-9 for 12 hours. During the last 30 minutes, Hoecht's dye was added to 100 nM to stain chromosomes. Cells were fixed in cold methanol and stained with antibody specific for alpha tubulin. Images of the organization of microtubules in spindles were collected with a laser scanning confocal microscope using a single 488 nm excitation wavelength.

OVCAR-3 cells [4] = assay: In vitro cytotoxicity assay (Promega CellTiter-Glo) in OVCAR-3; type: cell-based, human
Protocol: A growth inhibition study was also conducted using OVCAR-3 (a human ovarian adenocarcinoma) cells. Human ovarian adenocarcinoma OVCAR-3 cells are treated with diazonamide and control compounds for 48 hours and evaluated for cell viability using the Promega CellTiter-Glo™ Assay (Promega, Madison, Wis.). This assay uses luciferase to measure ATP as indicator of metabolically active cells.

HCT-116 cells [5] = conditions: HCT-116 human colorectal carcinoma line; cited from earlier work

## CC(C)[C@H](O)C(=O)N[C@H]1Cc2ccc3c(c2)C24C5=C(N=C(O5)[C@H](C(C)C)NC1=O)c1nc(Cl)c(o1)-c1c(Cl)[nH]c5cccc(c15)-c1cccc2c1OC4O3 (stereo partly drawn) [JL-9]
HCT-116 cells [1]
  cell cycle arrest (ploidy): arrests HCT-116 cells in the tetraploid (4n) state
[2]
  stability on handling: susceptible to handling
SK-MEL-5 cells
  cytotoxic and growth inhibitory effect: potent cytotoxic and growth inhibitory effect
OVCAR-3 cells [3]
  effect on tubulin cytoskeleton: aberrant effects on the cytoskeleton and formation of abnormal mitotic spindles
BSC-1 cells
  mitotic figures / spindle organization: Mitotic figures were frequently found
OVCAR-3 cells [4]; Homo sapiens, OVCAR-3, 48 h
  GI50: 16 nM
OVCAR-3 cells [4]; OVCAR-3 in vitro
  fold more potent than JL-10 at inhibiting growth: > 50 fold
  potency relative to natural diazonamide A and paclitaxel: equipotent to natural diazonamide A and paclitaxel

## CC(C)[C@H](N)C(=O)N[C@H]1Cc2ccc3c(c2)C24C5=C(N=C(O5)[C@H](C(C)C)NC1=O)c1nc(Cl)c(o1)-c1c(Cl)[nH]c5cccc(c15)-c1cccc2c1OC4O3 (stereo partly drawn) [JL-10]
SK-MEL-5 cells
  cytotoxic and growth inhibitory effect: inactive analogue
BSC-1 cells
  mitotic figures / spindle organization: resembled the vehicle controls
OVCAR-3 cells [4]; Homo sapiens, OVCAR-3, 48 h
  GI50: 845 nM

## CC(C)[C@H](O)C(=O)N[C@H]1Cc2ccc3c(c2)[C@]24C5=C(N=C(O5)[C@H](C(C)C)NC1=O)c1nc(Cl)c(o1)-c1c(Cl)[nH]c5cccc(c15)-c1cccc2c1N[C@@H]4O3 [natural diazonamide, diazonamide A, reference compound]
HCT-116 cells [5]
  GI50 (50% growth inhibitory concentration): less than 15 ng/ml
OVCAR-3 cells [4]; OVCAR-3, 48 hours, CellTiter-Glo, read-out: GI50
  GI50: 8 nM

## CC(=O)O[C@H]1C(=O)[C@@]2(C)[C@H]([C@H](OC(=O)c3ccccc3)[C@]3(O)C[C@H](OC(=O)[C@H](O)[C@@H](NC(=O)c4ccccc4)c4ccccc4)C(C)=C1C3(C)C)[C@]1(OC(C)=O)CO[C@@H]1C[C@@H]2O [paclitaxel, reference compound]
HCT-116 cells [1]
  cell cycle arrest (ploidy): arrests HCT-116 cells in the tetraploid (4n) state
BSC-1 cells
  mitotic figures / spindle organization: Mitotic figures were frequently found
OVCAR-3 cells [4]; Homo sapiens, OVCAR-3, 48 hours, CellTiter-Glo, read-out: GI50
  GI50: 8 nM

## CC[C@]1(O)C[C@@H]2CN(CCc3c([nH]c4ccccc34)[C@@](C(=O)OC)(c3cc4c(cc3OC)N(C)[C@H]3[C@@](O)(C(=O)OC)[C@H](OC(C)=O)[C@]5(CC)C=CCN6CC[C@]43[C@@H]65)C2)C1 [vinblastine, reference compound]
HCT-116 cells [1]
  cell cycle arrest (ploidy): arrests HCT-116 cells in the tetraploid (4n) state
BSC-1 cells
  mitotic figures / spindle organization: Mitotic figures were frequently found
